# Measured values as given in article PMC4980415 (Psychopharmacology, 2016).
# Assays:
# in vivo = details: male, Sprague-Dawley, rat, oral
# Experimental: Standard methods of tissue extraction were used. […] Brain homogenate or plasma was then extracted with two volumes of acetonitrile and clarified by centrifugation at 12,000g for 20 min. […] Brain and plasma concentration and ratio (brain/plasma) were calculated for each compound.
# [1] = tested on: conditioned avoidance responding in male Wistar rats; test: Conditioned avoidance response (CAR); assay type: in vivo, rat
# Experimental: The drug was administered, per os (po), by gavage to rats in a volume of 2 ml/kg body weight. Oral dosing solutions were prepared fresh daily. […] The pH of the dosing solution was adjusted to ~pH 5.5 by dropwise addition of 0.1 N NaOH in saline and volume adjusted by addition of saline in preparation for intraperitoneal (ip) dosing. […] Control treatments were always the vehicle solutions of the corresponding drugs.
# Avoidance behavior, escape behavior, escape failures, and inter-trial crosses were recorded, as described here: (1) avoidance (response to CS within 10 s); (2) escape (response to CS + UCS); and (3) escape failure (if the rat was unable to respond to the shock by moving into the opposite compartment within 50 s, the trial was terminated). The inter-trial interval (end of trial to start of new trial) varied randomly between 20 and 40 s. Rats were trained for five consecutive days and adapted to the shuttle box 5 min before each training session. Training sessions consisted of about 20 trials, randomly distributed over 15 min. Only rats that performed at least 90 % avoidance on the last day of training were included in the experiments. All subsequent test sessions were preceded by a pre-test to verify continued performance in the paradigm. Pre-tests and test sessions consisted of approximately ten trials, each randomly distributed over a 7.5-min period. […] Experimental days were always separated by at least two non-experimental days. Experimental tests were separated by at least 2 days to insure drug washout.
# Results from the conditioned avoidance responding (CAR) protocol were analyzed using non-parametric procedures.
SMILES,concentration at 1 h (in vivo; brain) [ng/mL],concentration at 1 h (in vivo; plasma) [ng/mL],"concentration at 1 h (in vivo; plasma, plasma concentration, risperidone 2 mg/kg po plus vehicle, 1 h, ± SD, n = 3) [ng/mL]","effect on percent avoidances ([1]; 0.2 mg/kg i.p., sub-threshold dose)","effect on avoidance behaviors ([1]; 0.8 mg/kg i.p., effective dose)"
"Cc1nc2n(c(=O)c1CCN1CCC(c3noc4cc(F)ccc34)CC1)CCCC2O (centres unmarked) [Paliperidone, paliperidone]",15 ± 5,197 ± 91,162 ± 70,,
"Cc1nc2n(c(=O)c1CCN1CCC(c3noc4cc(F)ccc34)CC1)CCCC2 [Risperidone, reference compound]",,,,no effect,significant inhibition
